Patent US5723606A, “Condensed benzazepine derivative and pharmaceutical composition thereof” (priority 1993, dated 1998)
Structures can show the parent of a compound that is named as a salt. Where two headings read alike, the source gives them in different places.

Tests used:
[1] = target: T1, arginine vasopressin V1 receptor (Rattus norvegicus, UniProt P30560); assay: V1 receptor binding assay; conditions: for antagonism on V1 receptor (in words): compared with OPC-31260 and OPC-21268, cf. Table 1
T1 construct: A rat liver membrane sample was prepared; from tissue; host or cells: rat liver membranes
T1 sequence (P30560 whole entry): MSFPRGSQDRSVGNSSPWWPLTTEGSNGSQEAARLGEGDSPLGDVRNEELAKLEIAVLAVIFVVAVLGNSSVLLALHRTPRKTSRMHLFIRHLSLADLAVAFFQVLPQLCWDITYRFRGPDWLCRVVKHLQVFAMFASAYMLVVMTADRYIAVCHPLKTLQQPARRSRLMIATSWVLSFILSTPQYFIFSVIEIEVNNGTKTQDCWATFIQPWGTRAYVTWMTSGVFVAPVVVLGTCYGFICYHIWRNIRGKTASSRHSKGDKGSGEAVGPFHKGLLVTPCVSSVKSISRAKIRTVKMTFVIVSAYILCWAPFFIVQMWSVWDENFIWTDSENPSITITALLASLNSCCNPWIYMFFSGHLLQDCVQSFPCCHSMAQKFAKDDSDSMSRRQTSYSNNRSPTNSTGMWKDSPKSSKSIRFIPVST
Protocol: Usefulness of the compounds of the present invention was confirmed by the following tests. (1) V1 receptor binding assay
A rat liver membrane sample was prepared in accordance with the method of Nakamura et al. (J. Biol. Chem., 258, 9283 (1983)), and [^3 H]-Arg-vasopressin (2 nM, specific activity =75.8 Ci/mmol), 70 μg of the membrane sample and each drug to be tested (10^-8 to 10^-4 M) were incubated at 30° C. for 30 minutes in 250 μl of 100 mM Tris-HCl buffer (pH 8.0) containing 5 mM magnesium chloride, 1mM ethylenediaminetetraacetic acid (EDTA) and 0.1% bovine serum albumin (BSA). Thereafter, the incubation solution was sucked off using a cell harvester and free ligand and excess buffer were removed by passing the reaction mixture through a glass filter (GF/B), thereby trapping receptor-bound labeled ligand on the glass filter. The glass filter was taken out, thoroughly dried and then mixed with a liquid scintillation cocktail, and the amount of the membrane-bound [^3 H]-vasopressin was measured using a liquid scintillation counter to calculate the inhibition ratio by the following formula. [formula] C1 : amount of [^3 H]-vasopressin bound to the membrane in the coexistence of known amount of each drug to be tested and [^3 H]-vasopressin
C0 : amount of [^3 H]-vasopressin bound to the membrane when the drug to be tested was not added
B1 : amount of [^3 H]-vasopressin bound to the membrane in the presence of excess vasopressin (10^-6 M)
[formula] [L]: concentration of radioactive ligand KD: dissociation constant calculated from Scatchard plot
Negative logarithm of the thus calculated value was used as pKi value.

[2] = target: arginine vasopressin V2 receptor (Oryctolagus cuniculus, UniProt G1TA00); assay: V2 receptor binding assay; set-up: species or system rabbit; conditions: for antagonism on V2 receptor (in words): compared with OPC-31260 and OPC-21268, cf. Table 1
Chain of arginine vasopressin V2 receptor (G1TA00 78-446): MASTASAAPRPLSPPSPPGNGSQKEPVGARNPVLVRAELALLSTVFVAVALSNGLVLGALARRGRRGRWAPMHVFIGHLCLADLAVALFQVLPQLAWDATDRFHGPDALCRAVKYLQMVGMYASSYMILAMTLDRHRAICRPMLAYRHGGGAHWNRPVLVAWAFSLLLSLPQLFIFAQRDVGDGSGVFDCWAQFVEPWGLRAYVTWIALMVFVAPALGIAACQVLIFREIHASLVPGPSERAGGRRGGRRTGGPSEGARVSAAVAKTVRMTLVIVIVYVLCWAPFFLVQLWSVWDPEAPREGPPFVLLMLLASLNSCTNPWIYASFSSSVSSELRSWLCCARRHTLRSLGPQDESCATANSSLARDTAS

V1 receptor = assay: V1 antagonism in conscious rats (oral administration); format: in vivo, rat; conditions: 1 mg/kg oral, from 30 minutes to 6 hours after administration, AVP 30 mU/kg i.v.
V2 receptor = assay: V2 antagonism (water diuresis) in conscious rats (oral administration); format: in vivo, rat
Protocol: (4) V2 antagonism (water diuresis) in conscious rats (oral administration)
Each compound to be tested was suspended in 0.5% methylcellulose aqueous solution and orally administered in a dose of 3 mg/kg to male Wister rats (body weight, 270 to 300 g) which had been subjected to fasting with no water for 16 to 20 hours. Using a metabolic cage, urine samples were collected just after the administration of each test sample and until 4 hours after the administration to measure the amount of urine.

[3] = rat liver membrane, [3H]-Arg-vasopressin 2 nM, read-out: Binding activity on arginine vasopressin V1 receptor (pki) (converted)

Row | Structure (SMILES) | antagonism on V1 receptor (in words) [1] | Ki [1, 3] [nM] | antagonism on V2 receptor (in words) [2] | other results
1 | CCCc1nc2c([nH]1)-c1ccccc1N(C(=O)c1ccc(NC(=O)c3ccccc3-c3ccccc3)cc1)CC2.Cl [Example 21, 4'-[(2-propyl-1,4,5,6-tetrahydroimidazo[4,5-d][1]benzazepin-6-yl)carbonyl]-2-phenylbenzanilide hydrochloride] | excellent antagonisms | 1.82 | excellent antagonisms | Pressure increase by AVP (diastolic blood pressure, pre-dose increase = 100%) (V1 receptor): ≤ 50%; amount of urine relative to the solvent-administered group (V2 receptor; po, 3 mg/kg): 8-10 times; amount of urine relative to the solvent-administered group (V2 receptor; po, 3 mg/kg, 2 h): 47-95 times
2 | NCCc1nc2c(s1)CCN(C(=O)c1ccc(NC(=O)c3ccccc3-c3ccccc3)cc1)c1ccccc1-2 [Example 15, 4'-[(2-aminoethyl-5,6-dihydro-4H-thiazolo[5,4-d][1]benzazepin-6-yl)carbonyl]-2-phenylbenzanilide hydrochloride] |  |  |  | Ki [1]: 1.23 nM
3 | NCCCCc1nc2c([nH]1)-c1ccccc1N(C(=O)c1ccc(NC(=O)c3ccccc3-c3ccccc3)cc1)CC2 [Example 37, 4'-[[2-(4-aminobutyl)-1,4,5,6-tetrahydroimidazo[4,5-d][1]benzazepin-6-yl]carbonyl]-2-phenylbenzanilide.2 HCl] | excellent antagonisms | 0.324 | excellent antagonisms | 
4 | Cc1nc2c(o1)-c1ccccc1N(C(=O)c1ccc(NC(=O)c3ccccc3-c3ccccc3)cc1)CC2 [Example 18(1), 4'-[(2-Methyl-5,6-dihydro-4H-oxazolo[4,5-d][1]benzazepin-6-yl)carbonyl]-2-phenylbenzanilide] |  | 4.27 |  | 
5 | Cc1nc2c([nH]1)-c1ccccc1N(C(=O)c1ccc(NC(=O)c3ccccc3OC(C)C)cc1)CC2 [Example 27, 2-isopropoxy-4'-[(2-methyl-1,4,5,6-tetrahydroimidazo[4,5-d][1]benzazepin-6-yl)carbonyl]benzanilide hydrochloride] |  | 6.17 |  | 
6 | CN(C)CCNc1nc2c(s1)CCN(C(=O)c1ccc(NC(=O)c3ccccc3-c3ccccc3)cc1)c1ccccc1-2 [Example 10, 4'-[(2-dimethylaminoethylamino-5,6-dihydro-4H-thiazolo[5,4-d][1]benzazepin-6-yl)carbonyl]-2-phenylbenzanilide.2 HCl] |  | 2.45 |  | 
7 | Cl.O=C(Nc1ccc(C(=O)N2CCc3nc(C4CC4)[nH]c3-c3ccccc32)cc1)c1ccccc1-c1ccccc1 [Example 23, 4'-[(2-cyclopropyl-1,4,5,6-tetrahydroimidazo[4,5-d][1]benzazepin-6-yl)carbonyl]-2-phenylbenzanilide hydrochloride] | excellent antagonisms |  | excellent antagonisms | Pressure increase by AVP (diastolic blood pressure, pre-dose increase = 100%) (V1 receptor): ≤ 50%; amount of urine relative to the solvent-administered group (V2 receptor; po, 3 mg/kg): 8-10 times; amount of urine relative to the solvent-administered group (V2 receptor; po, 3 mg/kg, 2 h): 47-95 times
8 | Cc1nc2c([nH]1)-c1ccccc1N(C(=O)c1ccc(NC(=O)C3(c4ccccc4)CCCC3)cc1)CC2 [Example 38, N-[4-[(2-methyl-1,4,5,6-tetrahydroimidazo[4,5-d][1]benzazepin-6-yl)carbonyl]phenylcyclopentanecarboxamido hydrochloride] |  | 5.75 |  | 
9 | Nc1nc2c(s1)CCN(C(=O)c1ccc(NC(=O)c3ccccc3-c3ccccc3)cc1)c1ccccc1-2 [Example 1, 4'-[(2-amino-5,6-dihydro-4H-thiazolo[5,4-d][1]benzazepin-6-yl)carbonyl]-2-phenylbenzanilide hydrobromate] |  | 4.68 |  | 
10 | CN(C)CCCc1nc2c(s1)CCN(C(=O)c1ccc(NC(=O)c3ccccc3-c3ccccc3)cc1)c1ccccc1-2 [Example 12, 4'-[[2-(3-dimethylaminopropyl)-5,6-dihydro-4H-thiazolo[5,4-d][1]benzazepin-6-yl)carbonyl]-2-phenylbenzanilide hydrochloride] |  | 3.02 |  | 
11 | CC(C)O.Cl.NCC(=O)Nc1nc2c(s1)CCN(C(=O)c1ccc(NC(=O)c3ccccc3-c3ccccc3)cc1)c1ccccc1-2 [Example 17, 4'-[(2-glycylamino-5,6-dihydro-4H-thiazolo[5,4-d][1]benzazepin-6-yl)carbonyl]-2-phenylbenzanilide 2-propylalcohol hydrochloride] | excellent antagonisms | 0.912 | excellent antagonisms | 
12 | Cc1ccccc1C(=O)Nc1ccc(C(=O)N2CCCC(N(C)C)c3ccccc32)cc1 (centres unmarked) [(1), reference compound] |  |  |  | Binding activity on arginine vasopressin V1 receptor (pki) ([1]; rat liver membrane, [3H]-Arg-vasopressin 2 nM): 6.71; Binding activity on arginine vasopressin V2 receptor (pki) ([2]; rabbit renal medulla membrane, [3H]-Arg-vasopressin 2 nM): 8.01; amount of urine relative to the solvent-administered group (V2 receptor; 3 mg/kg oral, from 2 hours to 4 hours after administration, fasted conscious rats): almost the same as that in the solvent-administered group; amount of urine relative to the solvent-administered group (V2 receptor; po, 3 mg/kg, 2 h): 11 times
13 | Cc1nc2c([nH]1)-c1ccccc1N(C(=O)c1ccc(NC(=O)c3ccccc3-c3ccccc3)cc1)CC2.Cl [Example 18(2), 4'-[(2-methyl-1,4,5,6-tetrahydroimidazo[4,5-d][1]benzazepin-6-yl)carbonyl]-2-phenylbenzanilide hydrochloride] | excellent antagonisms |  | excellent antagonisms | Ki [1]: 0.891 nM; Pressure increase by AVP (diastolic blood pressure, pre-dose increase = 100%) (V1 receptor): ≤ 50%; amount of urine relative to the solvent-administered group (V2 receptor; po, 3 mg/kg): 8-10 times; amount of urine relative to the solvent-administered group (V2 receptor; po, 3 mg/kg, 2 h): 47-95 times
14 | Cc1nc2c([nH]1)-c1ccccc1N(C(=O)c1ccc(NC(=O)c3ccccc3C)cc1)CC2 [Example 24, 2-methyl-4'-[(2-methyl-1,4,5,6-tetrahydroimidazo[4,5-d][1]benzazepin-6-yl)carbonyl]benzanilide hydrochloride] |  | 17 |  | 
15 | Cc1ccc(-c2ccccc2C(=O)Nc2ccc(C(=O)N3CCc4sc(NC(=N)N)nc4-c4ccccc43)cc2)cc1 [Example 4, 4'-[(2-guanidino-5,6-dihydro-4H-thiazolo[5,4-d][1]benzazepin-6-yl)carbonyl]-2-(4-methylphenyl)benzanilide hydrobromate] |  | 4.37 |  | 
16 | N=C(N)Nc1nc2c(s1)CCN(C(=O)c1ccc(NC(=O)c3ccccc3-c3ccccc3)cc1)c1ccccc1-2 [Example 2, 4'-[(2-guanidino-5,6-dihydro-4H-thiazolo[5,4-d][1]benzazepin-6-yl)carbonyl]-2-phenylbenzanilide hydrobromate] |  | 1.51 |  | 
17 | O=C(Nc1ccc(C(=O)N2CCc3sc(Cc4cccnc4)nc3-c3ccccc32)cc1)c1ccccc1-c1ccccc1 [Example 8, 4'-[[2-(3-pyridylmethyl)-5,6-dihydro-4H-thiazolo[5,4-d][1]benzazepin-6-yl)carbonyl]-2-phenylbenzanilide hydrochloride] |  | 18.2 |  | 
18 | CCc1nc2c([nH]1)-c1ccccc1N(C(=O)c1ccc(NC(=O)c3ccccc3-c3ccccc3)cc1)CC2.Cl [Example 20, 4'-[(2-ethyl-1,4,5,6-tetrahydroimidazo[4,5-d][1]benzazepin-6-yl)carbonyl]-2-phenylbenzanilide hydrochloride] | excellent antagonisms | 0.661 | excellent antagonisms | amount of urine relative to the solvent-administered group (V2 receptor; po, 3 mg/kg): 8-10 times; amount of urine relative to the solvent-administered group (V2 receptor; po, 3 mg/kg, 2 h): 47-95 times
19 | Cc1nc(Cc2nc3c(s2)CCN(C(=O)c2ccc(NC(=O)c4ccccc4-c4ccccc4)cc2)c2ccccc2-3)c[nH]1 [Example 6, 4'-[[2-[4-(2-methylimidazolyl)methyl]-5,6-dihydro-4H-thiazolo[5,4-d][1]benzazepin-6-yl)carbonyl]-2-phenylbenzanilide.2HCl] |  | 11.2 |  | 
